Results reported in patent US8110585B2, “Bicyclic compound and pharmaceutical use thereof” (Takeda Pharmaceutical Company Limited, priority 2007, dated 2012).

Assays:
[1] = target: T1, human melatonin 1 receptors (human MT1 receptors) (Homo sapiens, UniProt P48039); experiment: Melatonin receptor binding inhibitory test, 2-[125I] Iodomelatonin, MT1; settings: membrane fraction of CHO-hMelR7 cells, 25° C. for 2.5 hr, read-out: binding inhibitory activity as IC50 value for MT1
T1 construct: expressed in transfected cells; membrane fraction
T1 sequence (P48039 whole entry): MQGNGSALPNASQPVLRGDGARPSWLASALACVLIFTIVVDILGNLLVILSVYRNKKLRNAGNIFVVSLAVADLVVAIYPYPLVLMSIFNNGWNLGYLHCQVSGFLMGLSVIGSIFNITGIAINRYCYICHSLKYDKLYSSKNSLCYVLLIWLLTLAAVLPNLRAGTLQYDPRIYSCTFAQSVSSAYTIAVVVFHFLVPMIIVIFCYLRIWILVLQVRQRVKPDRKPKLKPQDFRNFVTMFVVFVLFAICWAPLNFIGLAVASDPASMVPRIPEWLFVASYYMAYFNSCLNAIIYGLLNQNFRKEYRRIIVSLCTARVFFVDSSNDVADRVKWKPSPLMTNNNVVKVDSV
Procedure: (§1) Melatonin Receptor Binding Inhibitory Test
(1) Preparation of CHO-hMelR7 Cells expressing Human Melatonin 1 Receptors
A cDNA fragment (SEQ ID NO: 1) encoding full-length of human melatonin 1 receptors (human MT1 receptors) was incorporated into expression vector pAKKO-111H (former name pAKKO1.11H; Biochim Biophys Acta. Vol. 1219(2), pp. 251-259, 1994) to give plasmid pAKKO-hMelR7 for animal cell expression. CHO/dhfr-cells (ATCC, #CRL-9096) were plated at a concentration of 0.3×10^6 cells/dish in a 6 cm culture dish (Becton Dickinson), and cultured under the conditions of 37° C., 5% CO2 for 48 hr. The cells were transfected with pAKKO-hMelR7 plasmid DNA (5 μg) using Cellphect Transfection Kit (Amersham, #27-9268-01). The transfected cells were cultured in Dulbecco's modified Eagle medium (DMEM) (Sigma, #D6046) containing 10% dialyzed FBS (Biowest, #S180D), 1× Non-Essential Amino Acid (Invitrogen, #11140-050) and 50 μg/mL Gentamycin (Invitrogen, #15750-060), and the cell line that stably expressed the plasmid gene was selected. By a receptor binding assay using 2-[^125I] Iodomelatonin, CHO-hMelR7 cell line showing specific binding of 2-[^125I] Iodomelatonin was selected from the obtained clones.
(§2) (3) Preparation of Cellular Membrane Fraction of CHO Cell (CHO-hMelR7 and CHO-hMT2) Stably Expressing Human MT1 and MT2 Receptors
(§3) CHO-hMelR7 and CHO-hMT2 cells were plated using Cellfactory (Nunc, #170009) under the conditions of 1×10^8 cells/2000 mL/flask. The cells were grown to confluent, and recovered by the following method. As the medium for CHO-hMelR7 and CHO-hMT2, MEM a containing 10% FBS and penicillin/streptomycin was used. […]
(§4) The medium was discarded, cells were washed twice with 200 mL of EDTA/PBS(−), 200 mL of EDTA/PBS(−) was further added, and the cells were stood still at room temperature for 20 min until they were released. The cells were recovered in four 50 mL tubes (Becton Dickinson, #352070), and centrifuged at 1,500 rpm for 10 min at 4° C. using a low speed cooling centrifuge (Hitachi, CF7D2). The supernatant was discarded, the pellets in the four tubes were suspended in 10 mL of PBS(−), and combined in one tube (Becton Dickinson, #352070). The mixture was further centrifuged at 1,500 rpm for 10 min at 4° C., and the obtained pellets were suspended in 20 mL of ice-cooled homogenizing buffer [10 mM NaHCO3, 5 mM EDTA, Protease inhibitor Complete (Roche), pH 7.4]. The cell suspension was homogenized 3 times using a polytron homogenizer at 20,000 rpm for 30 sec. The obtained homogenate was centrifuged (2,000 rpm, 10 min, 4° C.) using a low speed cooling centrifuge. The supernatant was recovered in an ultracentrifugation tube and ultracentrifuged (40,000 rpm, 60 min, 4° C.) using an ultracentrifuge (Beckman, L-90K). To the obtained pellets was added a suspending buffer [50 mM Tris-HCl, 1 mM EDTA, Protease inhibitor Complete (Roche), pH 7.4], and the pellets were suspended by pipetting. The protein concentration of this suspension was measured, diluted to 2 mg/mL to give cellular membrane fractions of CHO-hMelR7 and CHO-hMT2 cells. The membrane fractions were dispensed to 1.5 mL tubes (Eppendorf, #0030120.086) by 100 μL, preserved in a freezer (−80° C.) and used for a binding assay. Protein was quantified using BCA protein assay kit (Pierce) with BSA as the standard.
(§5) (4) Preparation of Membrane Fraction Suspension
(§6) Immediately before use, the membrane fractions of CHO-hMelR7 and CHO-hMT2 cells of the above-mentioned (3) were diluted 20-fold with assay buffer (50 mM Tris-HCl, pH 7.7).
(§7) (5) Preparation of 2-[^125I] Iodomelatonin Solution
(§8) 2-[^125I] Iodomelatonin (#NEX236, PerkinElmer) was diluted with the assay buffer to 400 pM for MT1 and 1 nM for MT2.
The assay buffer (80 μL) of the above-mentioned (4) was added to each well of a 96-well plate (type 3363, Corning). Then, a test compound (compound solution diluted with DMSO to 200-fold of the final measurement concentration) was added by 2 μL. […]

[2] = target: T2, human melatonin 2 receptors (human MT2 receptors) (Homo sapiens, UniProt P49286); experiment: Melatonin receptor binding inhibitory test, 2-[125I] Iodomelatonin, MT2; settings: membrane fraction of CHO-hMT2 cells, 25° C. for 2.5 hr, read-out: binding inhibitory activity as IC50 value for MT2
T2 construct: expressed in transfected cells; membrane fraction
T2 sequence (P49286 1-362): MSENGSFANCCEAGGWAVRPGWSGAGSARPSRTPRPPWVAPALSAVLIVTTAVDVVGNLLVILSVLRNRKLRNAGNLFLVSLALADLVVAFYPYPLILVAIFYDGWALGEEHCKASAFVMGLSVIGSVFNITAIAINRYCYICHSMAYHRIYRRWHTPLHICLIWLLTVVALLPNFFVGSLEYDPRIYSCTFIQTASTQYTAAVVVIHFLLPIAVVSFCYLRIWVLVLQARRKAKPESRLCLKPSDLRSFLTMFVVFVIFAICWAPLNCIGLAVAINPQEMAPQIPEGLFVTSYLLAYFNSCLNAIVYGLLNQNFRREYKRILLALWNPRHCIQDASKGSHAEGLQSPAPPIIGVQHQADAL
Procedure: as §1
(2) Preparation of CHO-hMT2 Cells Expressing Human Melatonin 2 Receptors
A cDNA fragment (SEQ ID NO: 2) encoding full-length of human melatonin 2 receptors (human MT2 receptors) was incorporated into expression vector pCMV-Script (Stratagene, #212220) to give the plasmid that was pCMV-human MT2 receptors expression vector for animal cell expression. CHO-K1 cells (ATCC, #CCL-61) were plated at the concentration of 1.5×10^5 cells/cm^2 in a 6 well plate (ASAHI TECHNO GLASS), and cultured under the conditions of 37° C., 5% CO2 for 24 hr. For gene transfection, solution obtained by blending pCMV-human MT2 receptors expression vector (1.9 μg), Lipofectamine Transfection Reagent (Invitrogen, #18324-012) (11.3 μL) and Minimum Essential Medium Eagle (MEM) medium (Sigma, M8042) (93.8 μL), and reacting at room temperature for 20 min was added to the cells per one well. The transfected cells were cultured in MEM medium containing 10% FBS (Life Technology) and 300 μg/mL Geneticin (GIBCO, #10131), and the cell line that stably expressed the plasmid gene was selected. By a receptor binding assay using 2-[^125I] Iodomelatonin, CHO-hMT2 cell line showing specific binding of 2-[^125I] Iodomelatonin was selected from the obtained clones.
as §2, §3, §4, §5, §6, §7, §8
The assay buffer (80 μL) of the above-mentioned (4) was added to each well of a 96-well plate (type 3363, Corning). […]

melting point | IC50 [1] | IC50 [2] | SMILES
153 to 154 °C | ≤ 100 nM | ≤ 100 nM | CC(=O)NC[C@@H]1C[C@H]1c1cccc2nn(C)cc12 (relative stereo) [Example 1, trans-N-{[2-(2-methyl-2H-indazol-4-yl)cyclopropyl]methyl}acetamide]
104 to 106 °C | ≤ 100 nM | ≤ 100 nM | CCC(=O)NC[C@@H]1C[C@H]1c1cccc2nn(C)cc12 (relative stereo) [Example 2, trans-N-{[2-(2-methyl-2H-indazol-4-yl)cyclopropyl]methyl}propanamide]
114 to 115 °C | ≤ 100 nM | ≤ 100 nM | CC(=O)NC[C@@H]1C[C@H]1c1cccn2nc(C)cc12 (relative stereo) [Example 5, trans-N-{[2-(2-methylpyrazolo[1,5-a]pyridin-4-yl)cyclopropyl]methyl}acetamide]
95 to 98 °C | ≤ 100 nM | ≤ 100 nM | CCC(=O)NC[C@@H]1C[C@H]1c1cccn2nc(C)cc12 (relative stereo) [Example 6, trans-N-{[2-(2-methylpyrazolo[1,5-a]pyridin-4-yl)cyclopropyl]methyl}propanamide]
120 to 121 °C |  |  | Cn1cc2c([C@@H]3C[C@H]3CNC(=O)OC(C)(C)C)cccc2n1 (relative stereo) [Example 7, trans-tert-butyl{[2-(2-methyl-2H-indazol-4-yl)cyclopropyl]methyl}carbamate]
155 to 156 °C | ≤ 100 nM | ≤ 100 nM | CCC(=O)NC[C@@H]1C[C@@H]1c1cccc2nn(C)cc12 (relative stereo) [Example 14, cis-N-{[2-(2-methyl-2H-indazol-4-yl)cyclopropyl]methyl}propanamide]
109 to 111 °C | ≤ 100 nM | ≤ 100 nM | CC(=O)NC[C@@H]1C[C@H]1c1cccc2nn(C)c(F)c12 (relative stereo) [Example 18, trans-N-{[2-(3-fluoro-2-methyl-2H-indazol-4-yl)cyclopropyl]methyl}acetamide]
157 to 159 °C | ≤ 100 nM | ≤ 100 nM | CC(=O)NC[C@@H]1C[C@H]1c1c(F)ccc2nn(C)cc12 (relative stereo) [Example 23, trans-N-{[2-(5-fluoro-2-methyl-2H-indazol-4-yl)cyclopropyl]methyl}acetamide]
105 to 107 °C |  |  | Cc1cc2c([C@@H]3C[C@H]3CNC(=O)OC(C)(C)C)cccn2n1 (relative stereo) [Example 40, trans-tert-butyl{[2-(2-methylpyrazolo[1,5-a]pyridin-4-yl)cyclopropyl]methyl}carbamate]
112 to 113 °C |  |  | Cc1cc2c([C@@H]3C[C@H]3CNC(=O)c3ccccc3)cccn2n1 (relative stereo) [Example 50, trans-N-{[2-(2-methylpyrazolo[1,5-a]pyridin-4-yl)cyclopropyl]methyl}benzamide]
116 to 118 °C | ≤ 100 nM |  | CC(=O)NCC1CC1c1cccn2nc(C)nc12 (stereo not shown) [Example 3, N-{[2-(2-methyl[1,2,4]triazolo[1,5-a]pyridin-8-yl)cyclopropyl]methyl}acetamide]
 | ≤ 100 nM | ≤ 100 nM | CCC(=O)NCC1CC1c1cccn2nc(C)nc12 (stereo not shown) [Example 4, N-{[2-(2-methyl[1,2,4]triazolo[1,5-a]pyridin-8-yl)cyclopropyl]methyl}propanamide]
141 to 142 °C |  |  | Cn1cc2c([C@H]3C[C@@H]3CNC(=O)OC(C)(C)C)cccc2n1 [Example 8, tert-butyl{[(1S,2S)-2-(2-methyl-2H-indazol-4-yl)cyclopropyl]methyl}carbamate]
140 to 142 °C |  |  | Cn1cc2c([C@@H]3C[C@H]3CNC(=O)OC(C)(C)C)cccc2n1 [Example 9, tert-butyl{[(1R,2R)-2-(2-methyl-2H-indazol-4-yl)cyclopropyl]methyl}carbamate]
140 to 142 °C |  |  | Cn1cc2c([C@@H]3C[C@H]3CNC(=O)c3ccc(Br)cc3)cccc2n1 [Example 15, 4-bromo-N-{[(1R,2R)-2-(2-methyl-2H-indazol-4-yl)cyclopropyl]methyl}benzamide]
 | ≤ 100 nM | ≤ 100 nM | CCc1ccc2nn(C)cc2c1C1CC1CNC(C)=O (stereo not shown) [Example 32, N-{[2-(5-ethyl-2-methyl-2H-indazol-4-yl)cyclopropyl]methyl}acetamide]
117 to 118 °C |  |  | Cc1cc2c([C@H]3C[C@@H]3CNC(=O)OC(C)(C)C)cccn2n1 [Example 41, tert-butyl{[(1S,2S)-2-(2-methylpyrazolo[1,5-a]pyridin-4-yl)cyclopropyl]methyl}carbamate]
118 to 119 °C |  |  | Cc1cc2c([C@@H]3C[C@H]3CNC(=O)OC(C)(C)C)cccn2n1 [Example 42, tert-butyl{[(1R,2R)-2-(2-methylpyrazolo[1,5-a]pyridin-4-yl)cyclopropyl]methyl}carbamate]
135 to 137 °C |  |  | CC(=O)NCC1CC1c1cccc2nc(C(F)(F)F)cn12 (stereo not shown) [Example 54, N-({2-[2-(trifluoromethyl)imidazo[1,2-a]pyridin-5-yl]cyclopropyl}methyl)acetamide]
148 to 151 °C |  |  | CCC(=O)NCC1CC1c1cccc2nc(C(F)(F)F)cn12 (stereo not shown) [Example 55, N-({2-[2-(trifluoromethyl)imidazo[1,2-a]pyridin-5-yl]cyclopropyl}methyl)propanamide]
